Experimental data reported in patent publication US9980943B2, “Methods of treating muscular dystrophy” (BOARD OF REGENTS OF THE NEVADA SYSTEM OF HIGHER EDUCATION, …, priority 2013, dated 2018).

Experiments:
Format in all cases: cell-based, mouse
[1] = tested on: α7 integrin (LacZ reporter in α7+/LacZ myotubes); experiment: Myotube α7 integrin FDG assay (Burkin assay in myotubes, 96-well); settings: myotubes; for fold induction at 0.5 µM / fold induction at 1 µM / fold induction at 5 µM / fold induction at 10 µM / fold induction at 20 µM / fold induction at 40 µM: Mus musculus, Myotube, read-out: Burkin Assay in Myotubes (signal relative to DMSO)
[2] = tested on: β-galactosidase in CMV-LacZ C2C12 myotubes; experiment: CMV-LacZ secondary screen in C2C12 myotubes (β-Gal stabilizing assay); settings: for CMV-LACZ in Myotubes (β-galactosidase activity relative to DMSO): CMV-LacZ C2C12 myotubes, 96-well format
Summary of the method: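 A secondary screen identifies compounds that stabilize β-gal independently of the native promoter, using CMV-LacZ C2C12 cells. Curves span 0.5–40 μM at six levels, in duplicate.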

[3] = tested on: α7 integrin (LacZ reporter in α7βgal+/− myoblasts); experiment: Myoblast α7+/LacZ integrin FDG assay (Burkin assay in myoblasts, 96-well); settings: α7+/LacZ myoblasts, 96-well; for fold induction at 0.5 µM / fold induction at 1 µM / fold induction at 5 µM / fold induction at 10 µM / fold induction at 20 µM / fold induction at 40 µM: Mus musculus, Myoblast, 48 h, read-out: Burkin Assay in Myoblasts, value relative to DMSO
[4] = 5 uM, C2C12 CMV-LacZ myotubes, fold relative to DMSO
[5] = 10 uM, C2C12 CMV-LacZ myotubes, fold relative to DMSO
[6] = 20 uM, C2C12 CMV-LacZ myotubes, fold relative to DMSO
[7] = 40 uM, C2C12 CMV-LacZ myotubes, fold relative to DMSO

In the case of `CCCCNC(=O)CN(C(=O)c1snc(C(=O)NC2CCCCC2)c1N)c1ccc(OC)cc1OC` [MLS001217697-01], the fold induction at 0.5 µM ([1]; 0.5 uM) was 1.2, the fold induction at 1 µM ([1]; 1 uM) was 0.968 and the fold induction at 5 µM ([1]; 5 uM) was 1.16. For the same compound, the fold induction at 10 µM ([1]; 10 uM) was 1.2, the fold induction at 20 µM ([1]; 20 uM) was 1.12 and the fold induction at 40 µM ([1]; 40 uM) was 1.12. The “CMV-LACZ in Myotubes (β-galactosidase activity relative to DMSO)” value ([2]; 5 uM) was 1.2, the “CMV-LACZ in Myotubes (β-galactosidase activity relative to DMSO)” value ([2]; 10 uM) was 0.8647 and the “CMV-LACZ in Myotubes (β-galactosidase activity relative to DMSO)” value ([2]; 20 uM) was 0.764. For the same compound, the “CMV-LACZ in Myotubes (β-galactosidase activity relative to DMSO)” value ([2]; 40 uM) was 0.7395, the fold induction at 0.5 µM ([3]; 0.5 uM) was 1.09 and the fold induction at 1 µM ([3]; 1 uM) was 1.12. It also gave a fold induction at 5 µM ([3]; 5 uM) of 1.18, a fold induction at 10 µM ([3]; 10 uM) of 1.16 and a fold induction at 20 µM ([3]; 20 uM) of 0.883. The fold induction at 40 µM ([3]; 40 uM) was 1.01.

`Cc1c(C(=O)N2CCCCC2)c(S(=O)(=O)Nc2cccc(Br)c2)c(C)n1C` [MLS001096269-01] showed a fold induction at 0.5 µM ([1]; 0.5 uM) of 0.999, a fold induction at 1 µM ([1]; 1 uM) of 1.09 and a fold induction at 5 µM ([1]; 5 uM) of 1.31. For the same compound, the fold induction at 10 µM ([1]; 10 uM) was 1.12, the fold induction at 20 µM ([1]; 20 uM) was 1.13 and the fold induction at 40 µM ([1]; 40 uM) was 0.912. For the same compound, the fold induction at 5 µM ([2]; Mus musculus, C2C12, read-out: CMV-LACZ in Myotubes, signal relative to DMSO, 5 uM, C2C12 CMV-LacZ myotubes, fold relative to DMSO) was 1.09, the fold induction at 10 µM ([2]; Mus musculus, C2C12, read-out: CMV-LACZ in Myotubes, signal relative to DMSO, 10 uM, C2C12 CMV-LacZ myotubes, fold relative to DMSO) was 0.74 and the fold induction at 20 µM ([2]; Mus musculus, C2C12, read-out: CMV-LACZ in Myotubes, signal relative to DMSO, 20 uM, C2C12 CMV-LacZ myotubes, fold relative to DMSO) was 0.986. For the same compound, the fold induction at 40 µM ([2]; Mus musculus, C2C12, read-out: CMV-LACZ in Myotubes, signal relative to DMSO, 40 uM, C2C12 CMV-LacZ myotubes, fold relative to DMSO) was 0.775, the fold induction at 0.5 µM ([3]; 0.5 uM) was 1.04 and the fold induction at 1 µM ([3]; 1 uM) was 1.01. It also gave a fold induction at 5 µM ([3]; 5 uM) of 0.941, a fold induction at 10 µM ([3]; 10 uM) of 1.03 and a fold induction at 20 µM ([3]; 20 uM) of 1.05. It also gave a fold induction at 40 µM ([3]; 40 uM) of 1.2.

`O=C(Nc1ccc(Cl)cc1N1CCOCC1)C1CCCCC1` [MLS001060549-01] was tested, and the “Burkin Assay in Myotubes (signal relative to DMSO)” value ([1]; 0.5 uM) was 0.8181, the “Burkin Assay in Myotubes (signal relative to DMSO)” value ([1]; 1 uM) was 1.071 and the “Burkin Assay in Myotubes (signal relative to DMSO)” value ([1]; 5 uM) was 0.9783. The “Burkin Assay in Myotubes (signal relative to DMSO)” value ([1]; 10 uM) was 1.111, the “Burkin Assay in Myotubes (signal relative to DMSO)” value ([1]; 20 uM) was 0.9391 and the “Burkin Assay in Myotubes (signal relative to DMSO)” value ([1]; 40 uM) was 0.9134. The “CMV-LACZ in Myotubes, signal relative to DMSO” value [2, 4] was 1.322, the “CMV-LACZ in Myotubes, signal relative to DMSO” value [2, 5] was 0.8952 and the “CMV-LACZ in Myotubes, signal relative to DMSO” value [2, 6] was 0.8814. For the same compound, the “CMV-LACZ in Myotubes, signal relative to DMSO” value [2, 7] was 1.075, the “Burkin Assay in Myoblasts, value relative to DMSO” value ([3]; 0.5 uM) was 1.056 and the “Burkin Assay in Myoblasts, value relative to DMSO” value ([3]; 1 uM) was 1.204. For the same compound, the “Burkin Assay in Myoblasts, value relative to DMSO” value ([3]; 5 uM) was 1.012, the “Burkin Assay in Myoblasts, value relative to DMSO” value ([3]; 10 uM) was 1.072 and the “Burkin Assay in Myoblasts, value relative to DMSO” value ([3]; 20 uM) was 0.7731. For the same compound, the “Burkin Assay in Myoblasts, value relative to DMSO” value ([3]; 40 uM) was 0.9411.

With `O=C1CCc2cc(S(=O)(=O)Nc3ccc(C(F)(F)F)cc3)cc3c2N1CC3` [MLS001237320-01] the “Burkin Assay in Myotubes, α7 integrin LacZ reporter signal relative to DMSO” value ([1]; 0.5 uM) was 0.9879, the “Burkin Assay in Myotubes, α7 integrin LacZ reporter signal relative to DMSO” value ([1]; 1 uM) was 1.055 and the “Burkin Assay in Myotubes, α7 integrin LacZ reporter signal relative to DMSO” value ([1]; 5 uM) was 1.035. For the same compound, the “Burkin Assay in Myotubes, α7 integrin LacZ reporter signal relative to DMSO” value ([1]; 10 uM) was 0.6554, the “Burkin Assay in Myotubes, α7 integrin LacZ reporter signal relative to DMSO” value ([1]; 20 uM) was 0.9912 and the “Burkin Assay in Myotubes, α7 integrin LacZ reporter signal relative to DMSO” value ([1]; 40 uM) was 0.9787. For the same compound, the “CMV-LACZ in Myotubes, signal relative to DMSO” value [2, 4] was 0.9582, the “CMV-LACZ in Myotubes, signal relative to DMSO” value [2, 5] was 0.7569 and the “CMV-LACZ in Myotubes, signal relative to DMSO” value [2, 6] was 0.9895. For the same compound, the “CMV-LACZ in Myotubes, signal relative to DMSO” value [2, 7] was 1.082, the “Burkin Assay in Myoblasts, signal relative to DMSO” value ([3]; 0.5 uM) was 0.9733 and the “Burkin Assay in Myoblasts, signal relative to DMSO” value ([3]; 1 uM) was 0.9848. For the same compound, the “Burkin Assay in Myoblasts, signal relative to DMSO” value ([3]; 5 uM) was 0.9145, the “Burkin Assay in Myoblasts, signal relative to DMSO” value ([3]; 10 uM) was 0.8495 and the “Burkin Assay in Myoblasts, signal relative to DMSO” value ([3]; 20 uM) was 0.9287. For the same compound, the “Burkin Assay in Myoblasts, signal relative to DMSO” value ([3]; 40 uM) was 0.8187.

With `COc1cc(CNCc2ccc(C(=O)O)cc2)ccc1OCc1ccc(F)cc1.Cl` [MLS001216405-01] the “Burkin Assay in Myotubes (signal relative to DMSO)” value ([1]; 0.5 uM) was 1.128, the “Burkin Assay in Myotubes (signal relative to DMSO)” value ([1]; 1 uM) was 0.9927 and the “Burkin Assay in Myotubes (signal relative to DMSO)” value ([1]; 5 uM) was 1.124. For the same compound, the “Burkin Assay in Myotubes (signal relative to DMSO)” value ([1]; 10 uM) was 0.9642, the “Burkin Assay in Myotubes (signal relative to DMSO)” value ([1]; 20 uM) was 0.9387 and the “Burkin Assay in Myotubes (signal relative to DMSO)” value ([1]; 40 uM) was 0.8706. For the same compound, the “CMV-LACZ in Myotubes, signal relative to DMSO” value [2, 4] was 0.9192, the “CMV-LACZ in Myotubes, signal relative to DMSO” value [2, 5] was 0.8008 and the “CMV-LACZ in Myotubes, signal relative to DMSO” value [2, 6] was 1.345. For the same compound, the “CMV-LACZ in Myotubes, signal relative to DMSO” value [2, 7] was 1.08, the “Burkin Assay in Myoblasts, value relative to DMSO” value ([3]; 0.5 uM) was 1.132 and the “Burkin Assay in Myoblasts, value relative to DMSO” value ([3]; 1 uM) was 0.9785. For the same compound, the “Burkin Assay in Myoblasts, value relative to DMSO” value ([3]; 5 uM) was 0.9945, the “Burkin Assay in Myoblasts, value relative to DMSO” value ([3]; 10 uM) was 0.9208 and the “Burkin Assay in Myoblasts, value relative to DMSO” value ([3]; 20 uM) was 0.9202. For the same compound, the “Burkin Assay in Myoblasts, value relative to DMSO” value ([3]; 40 uM) was 0.7667.

`COCc1c(C(=O)OCc2nc3ccsc3c(=O)[nH]2)oc2ccccc12` [MLS002163386-01] was tested, and the “Burkin Assay in Myotubes (signal relative to DMSO)” value ([1]; 0.5 uM) was 1.104, the “Burkin Assay in Myotubes (signal relative to DMSO)” value ([1]; 1 uM) was 1.048 and the “Burkin Assay in Myotubes (signal relative to DMSO)” value ([1]; 5 uM) was 1.112. For the same compound, the “Burkin Assay in Myotubes (signal relative to DMSO)” value ([1]; 10 uM) was 1.064, the “Burkin Assay in Myotubes (signal relative to DMSO)” value ([1]; 20 uM) was 1.064 and the “Burkin Assay in Myotubes (signal relative to DMSO)” value ([1]; 40 uM) was 1.02. For the same compound, the “CMV-LACZ in Myotubes (β-galactosidase activity relative to DMSO)” value ([2]; 5 uM) was 0.9749, the “CMV-LACZ in Myotubes (β-galactosidase activity relative to DMSO)” value ([2]; 10 uM) was 1.196 and the “CMV-LACZ in Myotubes (β-galactosidase activity relative to DMSO)” value ([2]; 20 uM) was 0.9465. For the same compound, the “CMV-LACZ in Myotubes (β-galactosidase activity relative to DMSO)” value ([2]; 40 uM) was 1.066, the “Burkin Assay in Myoblasts, value relative to DMSO” value ([3]; 0.5 uM) was 1.0508 and the “Burkin Assay in Myoblasts, value relative to DMSO” value ([3]; 1 uM) was 0.9023. The “Burkin Assay in Myoblasts, value relative to DMSO” value ([3]; 5 uM) was 1.034, the “Burkin Assay in Myoblasts, value relative to DMSO” value ([3]; 10 uM) was 0.888 and the “Burkin Assay in Myoblasts, value relative to DMSO” value ([3]; 20 uM) was 1.014. For the same compound, the “Burkin Assay in Myoblasts, value relative to DMSO” value ([3]; 40 uM) was 0.9388.

`CNc1nnc(SCC(=O)c2cc(C)n(C3CC3)c2C)s1` [MLS002156485-01] was tested, and the “Burkin Assay in Myotubes (signal relative to DMSO)” value ([1]; 0.5 uM) was 1.0551, the “Burkin Assay in Myotubes (signal relative to DMSO)” value ([1]; 1 uM) was 0.9807 and the “Burkin Assay in Myotubes (signal relative to DMSO)” value ([1]; 5 uM) was 1.2005. The “Burkin Assay in Myotubes (signal relative to DMSO)” value ([1]; 10 uM) was 1.0687, the “Burkin Assay in Myotubes (signal relative to DMSO)” value ([1]; 20 uM) was 1.057 and the “Burkin Assay in Myotubes (signal relative to DMSO)” value ([1]; 40 uM) was 1.156. For the same compound, the “CMV-LACZ in Myotubes (β-galactosidase activity relative to DMSO)” value ([2]; 5 uM) was 0.9468, the “CMV-LACZ in Myotubes (β-galactosidase activity relative to DMSO)” value ([2]; 10 uM) was 0.9523 and the “CMV-LACZ in Myotubes (β-galactosidase activity relative to DMSO)” value ([2]; 20 uM) was 1.115. For the same compound, the “CMV-LACZ in Myotubes (β-galactosidase activity relative to DMSO)” value ([2]; 40 uM) was 0.9483, the “Burkin Assay in Myoblasts, value relative to DMSO” value ([3]; 0.5 uM) was 1.059 and the “Burkin Assay in Myoblasts, value relative to DMSO” value ([3]; 1 uM) was 0.9382. For the same compound, the “Burkin Assay in Myoblasts, value relative to DMSO” value ([3]; 5 uM) was 0.9278, the “Burkin Assay in Myoblasts, value relative to DMSO” value ([3]; 10 uM) was 0.8752 and the “Burkin Assay in Myoblasts, value relative to DMSO” value ([3]; 20 uM) was 1.052. For the same compound, the “Burkin Assay in Myoblasts, value relative to DMSO” value ([3]; 40 uM) was 1.026.
